Assay results from US20230099739A1, “JAK KINASE INHIBITOR AND PREPARATION AND APPLICATION THEREOF” (MINGHUI PHARMACEUTICAL (SHANGHAI) LIMITED, priority 2020, published 2023).

Assays:
Ba/F3-TEL-JAK2 cells = assay: CellTiter-Glo proliferation of Ba/F3-TEL-JAK2 cells; type: cell-based; details: Mus musculus, murine B lymphocyte BaF3 with TEL-human JAK2 kinase domain
Text: (§1) In murine B lymphocytes BaF3, recombinant genes (including TEL and human JAK1, TYK2, JAK2, JAK3 kinase domains) were transferred by using genetic engineering technology, in which TEL could promote phosphorylation of TEL-JAK1 or TEL-TYK2 kinase dimer and continuously activate, thus allowing cells to grow dependent on the activity of this recombinant kinase. […] CellTiter-Glo method was used to detect the proliferation of genetically engineered cell lines Ba/F3-TEL-JAK1, Ba/F3-TEL-TYK2, Ba/F3-TEL-JAK2, and Ba/F3-TEL-JAK3 which was cultured in vitro. Graphpad 7.0 was used to fit curves and IC 50 values were calculated.

TYK2 = TYK2 (Homo sapiens, UniProt P29597); assay: Caliper mobility shift kinase assay, TYK2; type: biochemical; details: 1 mM ATP concentration
Chain of TYK2 (P29597 whole entry): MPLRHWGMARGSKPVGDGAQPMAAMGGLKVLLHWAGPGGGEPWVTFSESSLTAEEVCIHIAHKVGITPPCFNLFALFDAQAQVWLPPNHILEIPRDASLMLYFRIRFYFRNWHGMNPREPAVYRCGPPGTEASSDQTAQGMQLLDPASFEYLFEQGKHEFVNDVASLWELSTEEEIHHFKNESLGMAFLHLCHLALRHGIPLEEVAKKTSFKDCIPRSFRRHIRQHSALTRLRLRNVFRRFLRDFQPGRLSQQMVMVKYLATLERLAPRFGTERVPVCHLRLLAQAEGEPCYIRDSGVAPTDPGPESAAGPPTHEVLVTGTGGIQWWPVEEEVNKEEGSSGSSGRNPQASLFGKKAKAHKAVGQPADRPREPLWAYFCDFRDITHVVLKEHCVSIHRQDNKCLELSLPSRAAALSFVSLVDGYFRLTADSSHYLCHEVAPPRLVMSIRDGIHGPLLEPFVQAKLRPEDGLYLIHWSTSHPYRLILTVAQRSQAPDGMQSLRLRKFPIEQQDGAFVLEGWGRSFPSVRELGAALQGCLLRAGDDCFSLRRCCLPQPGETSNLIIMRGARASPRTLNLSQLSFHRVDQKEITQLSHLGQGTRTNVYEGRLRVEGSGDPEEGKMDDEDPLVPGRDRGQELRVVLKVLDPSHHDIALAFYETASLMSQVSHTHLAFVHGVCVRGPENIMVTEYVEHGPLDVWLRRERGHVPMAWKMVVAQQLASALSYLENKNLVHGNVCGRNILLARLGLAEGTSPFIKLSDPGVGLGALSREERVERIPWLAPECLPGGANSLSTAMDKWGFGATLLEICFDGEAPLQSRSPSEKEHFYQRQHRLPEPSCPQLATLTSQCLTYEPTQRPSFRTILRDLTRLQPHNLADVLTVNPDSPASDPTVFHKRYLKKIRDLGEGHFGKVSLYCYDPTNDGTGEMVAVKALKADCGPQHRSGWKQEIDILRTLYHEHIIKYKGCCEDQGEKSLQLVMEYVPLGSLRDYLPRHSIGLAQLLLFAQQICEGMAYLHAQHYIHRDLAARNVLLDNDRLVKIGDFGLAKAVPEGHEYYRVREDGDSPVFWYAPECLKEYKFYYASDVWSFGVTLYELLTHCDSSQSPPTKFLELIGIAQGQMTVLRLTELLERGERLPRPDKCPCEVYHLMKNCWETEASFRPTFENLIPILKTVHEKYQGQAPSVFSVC
Protocol: (§2) The in vitro inhibitory effect of compounds on JAK1, JAK2, JAK3 or TYK2 kinase was detected by Caliper mobility shift assay. Compounds to be tested were dissolved in DMSO, and prepared into 10 mM stock solutions. Stock solutions of the compounds were prepared into 50× working solutions (10 concentrations in total) through gradient dilution using DMSO, and each concentration of working solution was transferred to an Echo® master plate. The Echo® non-contact nanoliter sonic pipetting system was used to transfer […] of compound solution or DMSO of the corresponding concentration from the master plate to the 384-well reaction plate. Then, 10 μL of 2.5× kinase solution was added to the 384-well reaction plate. After 10 minutes of incubation at room temperature, 10 μL of mixed solution of 2.5×FAM-labeled polypeptide and ATP (final ATP concentration was 1 mM) was added. 30 μL of stop reagent was added, detected on Caliper, and the conversion value was calculated, i.e. the height of the product peak divided by the sum of the heights of the substrate and product peaks. […] Percent inhibition=(max−conversion)/(max−min)×100, wherein “max” represents the conversion reading for the DMSO control and “min” represents the conversion reading for the low value control.

Ba/F3-TEL-TYK2 cells = assay: CellTiter-Glo proliferation of Ba/F3-TEL-TYK2 cells; type: cell-based; details: Mus musculus, murine B lymphocyte BaF3 with TEL-human TYK2 kinase domain
Text: as §1

JAK3 = target: T1, JAK3 (Homo sapiens, UniProt P52333); assay: Caliper mobility shift kinase assay, JAK3; type: biochemical; details: 1 mM ATP concentration
T1 sequence (P52333 1-1124): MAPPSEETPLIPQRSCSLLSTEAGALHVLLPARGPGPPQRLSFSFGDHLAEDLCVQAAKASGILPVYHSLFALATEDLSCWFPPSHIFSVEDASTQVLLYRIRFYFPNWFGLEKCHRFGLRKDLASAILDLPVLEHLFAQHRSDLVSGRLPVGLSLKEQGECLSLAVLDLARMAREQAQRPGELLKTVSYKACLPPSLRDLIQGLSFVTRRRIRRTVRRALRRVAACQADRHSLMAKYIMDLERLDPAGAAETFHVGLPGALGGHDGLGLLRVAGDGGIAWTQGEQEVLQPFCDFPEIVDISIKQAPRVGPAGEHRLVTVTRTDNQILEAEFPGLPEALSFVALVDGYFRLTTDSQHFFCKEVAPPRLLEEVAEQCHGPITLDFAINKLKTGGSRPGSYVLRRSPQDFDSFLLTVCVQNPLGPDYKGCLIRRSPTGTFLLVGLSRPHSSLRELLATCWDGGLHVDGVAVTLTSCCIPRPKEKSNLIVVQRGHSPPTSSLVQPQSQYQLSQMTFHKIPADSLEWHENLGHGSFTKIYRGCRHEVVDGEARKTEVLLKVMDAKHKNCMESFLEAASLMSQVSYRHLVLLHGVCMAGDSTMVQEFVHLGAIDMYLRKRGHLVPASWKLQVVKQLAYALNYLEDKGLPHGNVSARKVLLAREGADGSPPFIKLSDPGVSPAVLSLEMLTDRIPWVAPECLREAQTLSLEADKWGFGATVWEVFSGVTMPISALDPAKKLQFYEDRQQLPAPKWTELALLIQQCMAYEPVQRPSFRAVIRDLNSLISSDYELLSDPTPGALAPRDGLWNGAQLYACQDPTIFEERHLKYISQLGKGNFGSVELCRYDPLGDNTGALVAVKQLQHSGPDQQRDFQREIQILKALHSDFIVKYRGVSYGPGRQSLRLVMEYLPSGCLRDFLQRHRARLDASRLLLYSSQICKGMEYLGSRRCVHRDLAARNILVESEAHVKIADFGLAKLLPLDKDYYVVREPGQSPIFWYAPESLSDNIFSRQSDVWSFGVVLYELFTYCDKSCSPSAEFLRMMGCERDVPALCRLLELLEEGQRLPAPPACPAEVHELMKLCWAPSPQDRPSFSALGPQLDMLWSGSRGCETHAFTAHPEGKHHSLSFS
Protocol: as §2

Ba/F3-TEL-JAK3 cells = assay: CellTiter-Glo proliferation of Ba/F3-TEL-JAK3 cells; type: cell-based; details: Mus musculus, murine B lymphocyte BaF3 with TEL-human JAK3 kinase domain
Text: as §1

JAK1 = JAK1 (Homo sapiens, UniProt P23458); assay: Caliper mobility shift kinase assay, JAK1; type: biochemical; details: 1 mM ATP concentration
Chain of JAK1 (P23458 whole entry): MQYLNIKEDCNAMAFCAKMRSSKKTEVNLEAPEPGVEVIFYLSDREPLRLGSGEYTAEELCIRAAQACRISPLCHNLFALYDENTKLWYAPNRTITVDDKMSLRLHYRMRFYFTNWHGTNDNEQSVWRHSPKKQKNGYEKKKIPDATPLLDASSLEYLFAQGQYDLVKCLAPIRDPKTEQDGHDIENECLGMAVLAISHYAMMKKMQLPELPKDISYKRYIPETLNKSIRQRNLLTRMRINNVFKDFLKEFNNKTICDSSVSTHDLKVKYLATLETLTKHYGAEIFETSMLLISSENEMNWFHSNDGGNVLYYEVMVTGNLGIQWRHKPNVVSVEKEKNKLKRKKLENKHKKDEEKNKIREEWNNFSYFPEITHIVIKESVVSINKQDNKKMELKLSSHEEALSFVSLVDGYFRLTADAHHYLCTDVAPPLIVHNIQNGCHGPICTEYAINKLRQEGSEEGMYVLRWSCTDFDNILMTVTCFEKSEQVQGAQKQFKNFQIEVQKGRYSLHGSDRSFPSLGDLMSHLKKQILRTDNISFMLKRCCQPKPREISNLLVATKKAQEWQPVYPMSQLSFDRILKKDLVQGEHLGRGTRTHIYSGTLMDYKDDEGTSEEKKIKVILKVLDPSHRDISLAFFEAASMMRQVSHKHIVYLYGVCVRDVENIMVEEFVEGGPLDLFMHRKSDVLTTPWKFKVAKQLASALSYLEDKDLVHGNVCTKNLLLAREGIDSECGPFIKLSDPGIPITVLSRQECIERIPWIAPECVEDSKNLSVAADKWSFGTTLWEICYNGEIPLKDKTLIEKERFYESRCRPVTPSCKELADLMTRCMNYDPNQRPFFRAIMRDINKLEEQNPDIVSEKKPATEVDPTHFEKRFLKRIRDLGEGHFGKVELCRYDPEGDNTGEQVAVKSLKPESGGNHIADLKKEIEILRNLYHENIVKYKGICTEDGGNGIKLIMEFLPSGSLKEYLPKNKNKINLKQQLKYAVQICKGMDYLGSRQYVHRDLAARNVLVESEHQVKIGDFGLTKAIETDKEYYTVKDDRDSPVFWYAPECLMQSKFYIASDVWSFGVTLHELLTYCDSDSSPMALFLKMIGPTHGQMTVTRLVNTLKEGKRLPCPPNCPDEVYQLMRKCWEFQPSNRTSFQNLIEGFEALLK
Protocol: as §2

JAK2 = JAK2 (Homo sapiens, UniProt O60674); assay: Caliper mobility shift kinase assay, JAK2; type: biochemical; details: 1 mM ATP concentration
Chain of JAK2 (O60674 whole entry): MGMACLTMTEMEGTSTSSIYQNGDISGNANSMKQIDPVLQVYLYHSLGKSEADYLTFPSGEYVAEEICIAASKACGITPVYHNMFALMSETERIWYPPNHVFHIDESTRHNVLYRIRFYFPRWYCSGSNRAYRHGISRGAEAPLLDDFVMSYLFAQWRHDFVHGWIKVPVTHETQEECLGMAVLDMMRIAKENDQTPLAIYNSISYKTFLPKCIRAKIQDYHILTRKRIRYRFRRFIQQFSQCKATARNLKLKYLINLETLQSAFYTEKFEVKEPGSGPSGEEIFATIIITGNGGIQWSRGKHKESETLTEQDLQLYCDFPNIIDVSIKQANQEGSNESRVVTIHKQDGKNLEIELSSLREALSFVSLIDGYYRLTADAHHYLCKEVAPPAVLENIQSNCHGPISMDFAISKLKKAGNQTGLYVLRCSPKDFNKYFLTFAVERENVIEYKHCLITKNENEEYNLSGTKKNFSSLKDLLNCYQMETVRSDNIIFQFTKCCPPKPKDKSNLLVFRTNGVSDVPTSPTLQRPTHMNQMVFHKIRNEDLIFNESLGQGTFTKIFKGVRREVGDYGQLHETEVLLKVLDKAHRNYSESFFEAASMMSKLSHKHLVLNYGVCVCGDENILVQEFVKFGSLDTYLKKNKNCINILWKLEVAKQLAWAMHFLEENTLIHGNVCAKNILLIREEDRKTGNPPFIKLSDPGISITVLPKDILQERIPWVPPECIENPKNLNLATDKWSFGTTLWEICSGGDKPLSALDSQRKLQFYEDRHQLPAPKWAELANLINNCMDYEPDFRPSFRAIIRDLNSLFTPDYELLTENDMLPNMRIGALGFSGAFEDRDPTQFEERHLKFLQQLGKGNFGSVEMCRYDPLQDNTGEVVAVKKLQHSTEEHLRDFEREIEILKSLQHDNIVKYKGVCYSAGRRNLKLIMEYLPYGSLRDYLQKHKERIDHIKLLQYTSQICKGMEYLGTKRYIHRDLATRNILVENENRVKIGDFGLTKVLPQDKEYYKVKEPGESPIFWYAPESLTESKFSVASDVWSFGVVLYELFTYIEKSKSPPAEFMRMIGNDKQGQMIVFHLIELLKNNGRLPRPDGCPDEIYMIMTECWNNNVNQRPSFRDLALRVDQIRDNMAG
Protocol: as §2

Ba/F3-TEL-JAK1 cells = assay: CellTiter-Glo proliferation of Ba/F3-TEL-JAK1 cells; type: cell-based; details: Mus musculus, murine B lymphocyte BaF3 with TEL-human JAK1 kinase domain
Text: as §1

Q: Which IC50 (Ba/F3-TEL-JAK2 cells) does the source give for `Cn1cc(Nc2nccc(N3CC4CSC(C3)N4C(=O)[C@@H]3CC3(F)F)n2)cn1` (stereo partly shown) [Example 1] here?
A: Its IC50 is 0.087 µM.

Q: And the IC50 (TYK2)?
A: The IC50 was 0.0042 µM.

Q: And the IC50 (Ba/F3-TEL-TYK2 cells)?
A: The IC50 was 0.111 µM.

Q: What about the IC50 (JAK3) of the same molecule?
A: The IC50 was 3.47 µM.

Q: And the IC50 (Ba/F3-TEL-JAK3 cells)?
A: Its IC50 is 3.69 µM.

Q: What about the IC50 (JAK1) of the same molecule?
A: Its IC50 is 0.032 µM.

Q: And the IC50 (JAK2)?
A: Its IC50 is 0.027 µM.

Q: What about the IC50 (Ba/F3-TEL-JAK1 cells) of the same molecule?
A: The IC50 was 0.031 µM.

Q: How did the IC50 (Ba/F3-TEL-JAK2 cells) turn out when `O=C([C@@H]1CC1(F)F)N1[C@H]2CS[C@@H]1CN(c1ccnc(Nc3cnn(CCO)c3)n1)C2` [Example 2] was run?
A: The IC50 was 0.173 µM.

Q: What about the IC50 (TYK2) of the same molecule?
A: Its IC50 is 0.0017 µM.

Q: And the IC50 (Ba/F3-TEL-TYK2 cells)?
A: Its IC50 is 0.192 µM.

Q: What about the IC50 (JAK3) of the same molecule?
A: The IC50 was 2.27 µM.

Q: What about the IC50 (Ba/F3-TEL-JAK3 cells) of the same molecule?
A: Its IC50 is 8.64 µM.

Q: What about the IC50 (JAK1) of the same molecule?
A: Its IC50 is 0.01 µM.

Q: And the IC50 (JAK2)?
A: Its IC50 is 0.0014 µM.

Q: And the IC50 (Ba/F3-TEL-JAK1 cells)?
A: Its IC50 is 0.314 µM.

Q: Which IC50 (Ba/F3-TEL-JAK2 cells) does the source give for `O=C([C@@H]1CC1(F)F)N1[C@H]2CS[C@@H]1CN(c1ccnc(Nc3cnn(C4(CO)CC4)c3)n1)C2` [Example 3] here?
A: Its IC50 is 0.427 µM.

Q: What about the IC50 (TYK2) of the same molecule?
A: Its IC50 is 0.0029 µM.

Q: And the IC50 (Ba/F3-TEL-TYK2 cells)?
A: The IC50 was 0.556 µM.

Q: And the IC50 (Ba/F3-TEL-JAK3 cells)?
A: Its IC50 is over 10 µM.

Q: And the IC50 (JAK1)?
A: The IC50 was 0.107 µM.

Q: What about the IC50 (Ba/F3-TEL-JAK1 cells) of the same molecule?
A: The IC50 was 0.056 µM.
